Test results taken from US12371454B2, “Cyclic peptide compound having Kras inhibitory action” (priority 2019, dated 2025).
Starred links: 1 amine or outer side, 2 acyl side, 3 side chain; linkers in the order of their positions; H or OH if unused. Positions of bridges follow the written chain, without caps; N, C: chain ends. Non-standard residues stand in square brackets, D forms with d. Residues, ends and D or L forms follow the SMILES beside them. *: point of attachment. hPhe(3-Cl-4-CF3) = N[C@@H](CCc1ccc(C(F)(F)F)c(Cl)c1)C(=O)O; hPhe(3-F,4-CF3) = N[C@@H](CCc1ccc(C(F)(F)F)c(F)c1)C(=O)O; X82 = O=C([C@H](Cc1cccc(OC(F)(F)F)c1)N[*:1])[*:2]; X5 = CC(C)(C)NC(=O)COC[C@H](CC(=O)[*:1])N[*:2]; NMePhe(3-Cl) = CN[C@@H](Cc1cccc(Cl)c1)C(=O)O; NMePhe(4-Cl) = CN[C@@H](Cc1ccc(Cl)cc1)C(=O)O; NMePhe(4-Me) = CN[C@@H](Cc1ccc(C)cc1)C(=O)O; X59 = O=C([C@H](Cc1cc(I)ccc1Cl)N[*:1])[*:2]; NMeGly(cPent) = CN[C@H](C(=O)O)C1CCCC1; NMe4Pal = CN[C@@H](Cc1ccncc1)C(=O)O; NMeCha = CN[C@@H](CC1CCCCC1)C(=O)O; NMeChg = CN[C@H](C(=O)O)C1CCCCC1; NMeF = CN[C@@H](Cc1ccccc1)C(=O)O; NMeI = CC[C@H](C)[C@H](NC)C(=O)O; N(CH2CH2)2CF2 = FC1(F)CCN(*)CC1; NMeD = CN[C@@H](CC(=O)O)C(=O)O; NMeL = CN[C@@H](CC(C)C)C(=O)O; NMeV = CN[C@H](C(=O)O)C(C)C; d(β3hA) = C[C@@H](N)CC(=O)O; NMeA = CN[C@@H](C)C(=O)O; NMeAib = CNC(C)(C)C(=O)O; Nle = CCCC[C@H](N)C(=O)O; Piperidide = C1CCN(*)CC1; Ac5c = NC1(C(=O)O)CCCC1; Aze = O=C(O)[C@@H]1CCN1; Ac4c = NC1(C(=O)O)CCC1; Aib = CC(C)(N)C(=O)O; Sar = CNCC(=O)O

These compounds were tested against T1, Kras and SOS1 (biotin-tagged human Kras loaded with GDP, His-tagged human SOS1) (Homo sapiens, UniProt P01116, G12D) (assay: Protein-protein interaction inhibition between Kras and SOS1 (KrasGl2D-SOS PPI) using AlphaScreen). Settings: AlphaScreen; biotin-tagged human Kras loaded with GDP, His-tagged human SOS1; read-out: KRAS G12D-SOS PPI IC50.
T1 construct: made in house; host or cells: E. coli (stated for Kras only)
Format: binding
Method in brief: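 Binding between SOS1 and Kras is detected as bead-proximity luminescence: illuminate Ni-conjugated donors (680 nm), collect 520-620 nm emission from streptavidin-conjugated acceptors; Kras carries biotin and GDP loaded after purification, SOS1 carries a His tag.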

T1 sequence (P01116 1-188 isoform P01116-2 G12D): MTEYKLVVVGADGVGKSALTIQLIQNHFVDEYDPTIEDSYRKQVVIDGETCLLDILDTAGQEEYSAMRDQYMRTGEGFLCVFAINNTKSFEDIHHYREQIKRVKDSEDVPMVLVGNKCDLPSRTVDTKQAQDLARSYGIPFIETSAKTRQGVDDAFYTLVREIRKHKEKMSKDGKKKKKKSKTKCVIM

Row | Structure (SMILES) | IC50
1 | CC[C@H](C)[C@@H]1NC(=O)[C@H](CC(C)C)N(C)C(=O)C[C@@H](C(=O)N2CCCCC2)N(C)C(=O)[C@H](C2CCCCC2)N(C)C(=O)C2(CCCC2)NC(=O)[C@@H]2CCCN2C(=O)[C@H](CCc2ccc(C(F)(F)F)c(Cl)c2)NC(=O)[C@H](C)N(C)C(=O)[C@H](CC2CCCCC2)N(C)C(=O)CN(C)C(=O)CN(C)C1=O [Compound 722] ([NMeL]I[Sar][Sar][NMeCha][NMeA][hPhe(3-Cl-4-CF3)]P[Ac5c][NMeChg][NMeD]-Piperidide; lactam N-11) | 420 nM
2 | CC[C@H](C)[C@@H]1NC(=O)[C@H](C)N(C)C(=O)C[C@@H](C(=O)N2CCCCC2)NC(=O)[C@H](CC(C)C)N(C)C(=O)[C@H](Cc2ccccc2)N(C)C(=O)[C@H](CC(C)C)NC(=O)[C@H](Cc2cccc(OC(F)(F)F)c2)NC(=O)CN(C)C(=O)[C@H](Cc2ccc(Cl)cc2)N(C)C(=O)CN(C)C(=O)CN(C)C1=O [Compound 473] ([NMeA]I[Sar][Sar][NMePhe(4-Cl)][Sar][X82]L[NMeF][NMeL]D-Piperidide; lactam N-11) | 410 nM
3 | CC[C@H](C)[C@@H]1NC(=O)[C@H](CC(C)C)N(C)C(=O)C[C@@H](C)NC(=O)[C@H](C(C)C)N(C)C(=O)C2(CCCC2)NC(=O)[C@@H]2CCCN2C(=O)[C@H](CCc2ccc(C(F)(F)F)c(Cl)c2)NC(=O)[C@H]2CCCN2C(=O)[C@H](CC2CCCCC2)N(C)C(=O)CN(C)C(=O)CN(C)C1=O [Compound 76] (cyclo([Ac5c][NMeV][d(β3hA)][NMeL]I[Sar][Sar][NMeCha][dP][hPhe(3-Cl-4-CF3)]P)) | 190 nM
4 | CCCC[C@@H]1NC(=O)[C@H](Cc2cc(I)ccc2Cl)NC(=O)CN(C)C(=O)[C@H](Cc2ccc(Cl)cc2)N(C)C(=O)CN(C)C(=O)CN(C)C(=O)[C@H]([C@@H](C)CC)NC(=O)[C@H](CC(C)C)N(C)C(=O)C[C@@H](C(=O)N2CCCCC2)N(C)C(=O)[C@H](CC(C)C)NC(=O)C(C)(C)N(C)C1=O [Compound 1352] ([NMeL]I[Sar][Sar][NMePhe(4-Cl)][Sar][X59][Nle][NMeAib]L[NMeD]-Piperidide; lactam N-11) | 110 nM
5 | CC[C@H](C)[C@@H]1NC(=O)[C@H](CC(C)C)N(C)C(=O)C[C@@H](C(=O)N(C)C)N(C)C(=O)[C@H](C2CCCC2)N(C)C(=O)C2(CCCC2)NC(=O)[C@H](Cc2cccc(Cl)c2)N(C)C(=O)[C@H](CCc2ccc(C(F)(F)F)c(Cl)c2)NC(=O)CN(C)C(=O)[C@H](CC2CCCCC2)N(C)C(=O)[C@@H]2CCN2C(=O)[C@H](C)N(C)C1=O [Compound 179] ([NMeL]I[NMeA][Aze][NMeCha][Sar][hPhe(3-Cl-4-CF3)][NMePhe(3-Cl)][Ac5c][NMeGly(cPent)][NMeD]-NMe2; lactam N-11) | 42 nM
6 | CC[C@H](C)[C@@H]1NC(=O)[C@H](CC(C)C)N(C)C(=O)C[C@@H](C(=O)N2CCCCC2)N(C)C(=O)[C@H](C(C)C)N(C)C(=O)C(C)(C)NC(=O)[C@@H]2CCCN2C(=O)[C@H](CCc2ccc(C(F)(F)F)c(F)c2)NC(=O)CN(C)C(=O)[C@H](CC2CCCCC2)N(C)C(=O)CN(C)C(=O)CN(C)C1=O [Compound 522] ([NMeL]I[Sar][Sar][NMeCha][Sar][hPhe(3-F,4-CF3)]P[Aib][NMeV][NMeD]-Piperidide; lactam N-11) | 5.3 nM
7 | CC[C@H](C)[C@@H]1NC(=O)[C@H](CC(C)C)N(C)C(=O)C[C@@H](COCC(=O)NC(C)(C)C)NC(=O)[C@H]([C@@H](C)CC)N(C)C(=O)C2(CCCC2)NC(=O)[C@@H]2CCCN2C(=O)[C@H](CCc2ccc(C(F)(F)F)c(Cl)c2)NC(=O)CN(C)C(=O)[C@H](Cc2ccc(C)cc2)N(C)C(=O)[C@@H]2CCN2C(=O)[C@H](C)N(C)C1=O [Compound 1960] ([NMeL]I[NMeA][Aze][NMePhe(4-Me)][Sar][hPhe(3-Cl-4-CF3)]P[Ac5c][NMeI]; linker N-C via X5) | 56 nM
8 | CC[C@H](C)[C@@H]1NC(=O)[C@H](CC(C)C)N(C)C(=O)C[C@@H](C(=O)N2CCCCC2)N(C)C(=O)[C@H](C(C)C)N(C)C(=O)C2(CCC2)NC(=O)[C@H](CC(=O)N2CCC(F)(F)CC2)N(C)C(=O)[C@H](CCc2ccc(C(F)(F)F)c(Cl)c2)NC(=O)CN(C)C(=O)[C@H](CC2CCCCC2)N(C)C(=O)CN(C)C(=O)CN(C)C1=O [Compound 251] ([NMeL]I[Sar][Sar][NMeCha][Sar][hPhe(3-Cl-4-CF3)][NMeD](N(CH2CH2)2CF2)[Ac4c][NMeV][NMeD]-Piperidide; lactam N-11) | 3.8 nM
9 | CC[C@H](C)[C@@H]1NC(=O)[C@H](CC(C)C)N(C)C(=O)C[C@@H](C(=O)N(C)C)N(C)C(=O)[C@H]([C@@H](C)CC)N(C)C(=O)C2(CCCC2)NC(=O)[C@H](Cc2ccncc2)N(C)C(=O)[C@H](CCc2ccc(C(F)(F)F)c(Cl)c2)NC(=O)CN(C)C(=O)[C@H](Cc2ccc(C)cc2)N(C)C(=O)[C@@H]2CCN2C(=O)[C@H](C)N(C)C1=O [Compound 1962] ([NMeL]I[NMeA][Aze][NMePhe(4-Me)][Sar][hPhe(3-Cl-4-CF3)][NMe4Pal][Ac5c][NMeI][NMeD]-NMe2; lactam N-11) | 1.4 nM
